In ChEMBL document CHEMBL3046398, “Synthesis and Antifungal Activities of Furoxan Derivatives Designed as Novel Fungicide” (1998):

Legend:
Assay type in all cases: functional
Botrytis cinerea = experiment: Fungicidal activity against Botryotinia fuckeliana at 250 ppm relative to control
Phytophthora infestans = experiment: Fungicidal activity against Phytophthora infestans at 250 ppm relative to control
Blumeria graminis = experiment: Fungicidal activity against Blumeria graminis at 250 ppm relative to control
Rhizoctonia solani = experiment: Fungicidal activity against Rhizoctonia solani at 250 ppm relative to control
Puccinia recondita = experiment: Fungicidal activity against Puccinia recondita at 250 ppm relative to control
Pyricularia oryzae = experiment: Fungicidal activity against Magnaporthe oryzae at 250 ppm relative to control

SMILES	Activity (Botrytis cinerea) [%]	Activity (Phytophthora infestans) [%]	Activity (Blumeria graminis) [%]	Activity (Rhizoctonia solani) [%]	Activity (Puccinia recondita) [%]	Activity (Pyricularia oryzae) [%]
[O-][n+]1onc(-c2ccc(Cl)cc2Cl)c1-c1ccc(Cl)cc1Cl [3,4-DI-(2,4-DICHLOROPHENYL)FUROXAN]	0	7	0	16	0	38
Cc1c(/C=N/Nc2ccccc2)no[n+]1[O-]	43	36	53	0	60	21
Cc1c(C(c2ccc(Cl)cc2)n2cncn2)no[n+]1[O-] (stereo not given) [4-[(4-CHLOROPHENYL)(1,2,4-TRIAZOL-1-YL)METHYL]-3-METHYLFUROXAN]	0	37	25	0	0	16
[O-][n+]1onc(-c2ccccc2F)c1-c1ccccc1F [3,4-DI-(2-FLUOROPHENYL)FUROXAN]	0	0	0	0	0	6
[O-][n+]1onc(-c2ccc(Cl)cc2)c1-c1ccc(Cl)cc1 [3,4-DI(4-CHLOROPHENYL)FUROXAN]	30	28	9	35	87	14
Cc1c(/C=N/Nc2ccc(Cl)cc2)no[n+]1[O-]	71	45	34	37	67	0
Cc1c(/C=N/c2ccccc2)no[n+]1[O-]	62	73	15	5	17	7
[O-][n+]1onc(-c2ccccc2C(F)(F)F)c1-c1ccccc1C(F)(F)F [3,4-DI-(2-(TRIFLUOROMETHYL)PHENYL)FUROXAN]	2	0	14	6	0	0
Cc1c(/C=N/c2ccc(Cl)cc2)no[n+]1[O-]	52	77	53	0	67	29
[O-][n+]1onc(-c2ccc3ccccc3c2)c1-c1ccc2ccccc2c1 [3,4-DI(2-NAPHTHYL)FUROXAN]	51	14	73	10	0	60
Cc1c(Cn2cncn2)no[n+]1[O-] [3-METHYL-4-[(1,2,4-TRIAZOL-1-YL)METHYL]FUROXAN]	8	11	25	0	0	4
[O-][n+]1onc(-c2ccc(C(F)(F)F)cc2)c1-c1ccc(C(F)(F)F)cc1 [3,4-DI-(4-(TRIFLUOROMETHYL)PHENYL)FUROXAN]	0	53	17	11	0	6
[O-][n+]1onc(-c2c(Cl)cccc2Cl)c1-c1c(Cl)cccc1Cl [3,4-DI-(2,6-DICHLOROPHENYL)FUROXAN]	0	27	0	0	0	41
Cc1ccc(/N=C/c2no[n+]([O-])c2C)cc1C	33	53	21	24	0	11
Cc1c(C(Cl)c2ccc(Cl)cc2)no[n+]1[O-] (stereo not given) [4-[CHLORO(4-CHLOROPHENYL)METHYL]-3-METHYLFUROXAN]	0	0	8	0	0	21
Cc1c(C(O)c2ccc(Cl)cc2)no[n+]1[O-] (stereo not given) [4-[(4-CHLOROPHENYL)HYDROXYMETHYL]-3-METHYLFUROXAN]	25	20	39	0	0	0
Cc1ccc(-c2no[n+]([O-])c2-c2ccc(C)s2)s1 [3,4-DI-(5-METHYLTHIOPHEN-2-YL)FUROXAN]	0	33	17	5	0	38
[O-][n+]1onc(-c2ccccc2Cl)c1-c1ccccc1Cl [3,4-DI-(2-CHLOROPHENYL)FUROXAN]	0	20	33	26	10	13
[O-][n+]1onc(-c2cccnc2Cl)c1-c1cccnc1Cl [3,4-DI-(2-CHLOROPYRIDIN-3-YL)FUROXAN]	0	27	0	11	10	19
COc1ccc(C(O)c2no[n+]([O-])c2C)cc1 (stereo not given) [4-[HYDROXY(4-METHOXYPHENYL)METHYL]-3-METHYLFUROXAN]	17	19	0	5	0	4
